# What was measured:
# Assay type in all cases: functional
# [1] = system: Enterobacter hormaechei; test: Antibacterial activity against Enterobacter hormaechei isolate UCN62
# [2] = system: Enterobacter hormaechei; test: Antibacterial activity against Enterobacter hormaechei isolate UCN63 after 3 weeks of treatment
# [3] = system: Enterobacter cloacae; test: Antibacterial activity against Enterobacter cloacae UCN63 by broth microdilution method after 3 weeks of treatment; conditions: UCN63, 504 h
# [4] = system: Enterobacter cloacae; test: Antibacterial activity against Enterobacter cloacae UCN62 by broth microdilution method
# [5] = system: Enterobacter cloacae; test: Antibacterial activity against Enterobacter cloacae UCN63 by Etest after 3 weeks of treatment; conditions: UCN63, 504 h
# [6] = system: Enterobacter cloacae; test: Antibacterial activity against Enterobacter cloacae UCN62 by Etest
Molecule,MIC [1],"MIC ([2]; isolate UCN63, 504 h)",MIC [2],MIC [3],MIC [4],MIC [5],MIC [6]
CO/N=C(\C(=O)N[C@@H]1C(=O)N2C(C(=O)O)=C(COC(C)=O)CS[C@H]12)c1csc(N)n1 [CEFOTAXIME],> 64 µg/mL,> 64 µg/mL,–,–,–,–,–
O=C(O)c1cn(C2CC2)c2cc(N3CCNCC3)c(F)cc2c1=O [CIPROFLOXACIN],> 16 µg/mL,> 16 µg/mL,–,–,–,–,–
GENTAMICIN,> 32 µg/mL,–,> 32 µg/mL,–,–,–,–
NCC[C@H](O)C(=O)N[C@@H]1C[C@H](N)[C@@H](O[C@H]2O[C@H](CN)[C@@H](O)[C@H](O)[C@H]2O)[C@H](O)[C@H]1O[C@H]1O[C@H](CO)[C@@H](O)[C@H](N)[C@H]1O [AMIKACIN],4 µg/mL,8 µg/mL,–,–,–,–,–
C[C@@H](O)[C@H]1C(=O)N2C(C(=O)O)=C(SCCNC=N)C[C@H]12 [IMIPENEM ANHYDROUS],1 µg/mL,1 µg/mL,–,–,–,–,–
CN(C)c1cc(NC(=O)CNC(C)(C)C)c(O)c2c1C[C@H]1C[C@H]3[C@H](N(C)C)C(O)=C(C(N)=O)C(=O)[C@@]3(O)C(O)=C1C2=O [TIGECYCLINE],2 µg/mL,4 µg/mL,–,4 µg/mL,2 µg/mL,3 µg/mL,1 µg/mL
